This passage reports IC50 and Kd results from publication PMC7242711, “An integrated approach to unravel a crucial structural property required for the function of the insect steroidogenic Halloween protein Noppera-bo” (The Journal of Biological Chemistry, 2020).

For one assay, the target named is T1, DmGSTE9 (Drosophila melanogaster, UniProt A1ZB74).
T1 construct: gene GstE9; full-length CDS, pCold-III, N-terminal MNHKV kept; E. coli BL21(DE3)
T1 sequence (A1ZB74 1-221): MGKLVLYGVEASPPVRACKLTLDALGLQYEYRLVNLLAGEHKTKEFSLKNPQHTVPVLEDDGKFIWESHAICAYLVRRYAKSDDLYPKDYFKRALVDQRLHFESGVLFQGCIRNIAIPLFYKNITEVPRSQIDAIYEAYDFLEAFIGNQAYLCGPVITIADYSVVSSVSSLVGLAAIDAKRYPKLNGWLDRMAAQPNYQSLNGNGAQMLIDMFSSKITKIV
The assay is described as follows: fluorogenic GSH conjugation assay with […],4-DNADCF. The assay is classed as biochemical.

Assay [1] addresses T2, DmNobo (Drosophila melanogaster, UniProt Q7JYX0).
T2 construct: gene GstE14; full-length CDS, pCold-III, N-terminal translation enhancing element MNHKV kept; E. coli BL21(DE3); homodimer
Briefly: SPR, Biacore T200, protein immobilised on CM5 chip by amine coupling. Type of assay: binding. From the text: SPR, Biacore T200, protein immobilised on CM5 chip by amine coupling on DmNobo | Kd values between DmNobo WT and EST in the presence or absence of GSH were […]
Background: SPR reads the build-up and loss of mass on a sensor chip optically.

Assay [2] has as its target T3, AgNobo (Anopheles gambiae, UniProt Q8WQJ5, D111A).
T3 construct: gene GSTe8; full-length CDS, pCold-III, N-terminal MNHKV kept; E. coli BL21(DE3)
T3 sequence (Q8WQJ5 1-217 D111A): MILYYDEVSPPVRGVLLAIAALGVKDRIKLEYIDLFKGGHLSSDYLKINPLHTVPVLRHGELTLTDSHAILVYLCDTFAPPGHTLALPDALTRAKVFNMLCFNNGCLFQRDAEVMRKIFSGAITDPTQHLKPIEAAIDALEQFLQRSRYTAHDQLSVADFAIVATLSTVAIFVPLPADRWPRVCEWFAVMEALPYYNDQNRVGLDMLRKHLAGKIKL
The assay is described as follows: fluorogenic GSH conjugation assay with […],4-DNADCF. Type of assay: biochemical.

In assay [3] the target is T4, AgNobo (Anopheles gambiae, UniProt Q8WQJ5).
T4 construct: gene GSTe8; full-length CDS, pCold-III, N-terminal MNHKV kept; E. coli BL21(DE3)
T4 sequence (Q8WQJ5 1-217): T3 sequence (Q8WQJ5 1-217 D111A)
Briefly: fluorogenic GSH conjugation assay with […],4-DNADCF. The assay is classed as biochemical.

In assay [4] the target is T5, DmNobo (Drosophila melanogaster, UniProt Q7JYX0, D113A).
T5 construct: gene GstE14; full-length CDS, pCold-III, N-terminal translation enhancing element MNHKV kept; E. coli BL21(DE3); homodimer
T5 sequence (Q7JYX0 whole entry D113A): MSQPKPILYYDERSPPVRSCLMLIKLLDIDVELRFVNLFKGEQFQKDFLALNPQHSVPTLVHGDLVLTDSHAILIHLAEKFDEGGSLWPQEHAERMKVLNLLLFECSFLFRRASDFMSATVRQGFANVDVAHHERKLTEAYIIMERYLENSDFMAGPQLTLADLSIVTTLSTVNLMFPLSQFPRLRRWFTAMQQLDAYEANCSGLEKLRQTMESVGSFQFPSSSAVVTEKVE
The assay is described as follows: fluorogenic GSH conjugation assay with […],4-DNADCF. The assay is classed as biochemical.

Assay [5] concerns the target T2, DmNobo. The assay is described as follows: fluorogenic GSH conjugation assay with […],4-DNADCF. Type of assay: biochemical. The conditions noted are these: 1 mM GSH, 1 μM 3,4-DNADCF (final, after equal-volume mixing), 100 mM sodium phosphate pH 6.5, 0.01% Tween 20; H-site.
Another assay deals with T6, DmGSTE6 (Drosophila melanogaster, UniProt A1ZB71).
T6 construct: gene GstE6; full-length CDS, pCold-III, N-terminal MNHKV kept; E. coli BL21(DE3)
T6 sequence (A1ZB71 1-222): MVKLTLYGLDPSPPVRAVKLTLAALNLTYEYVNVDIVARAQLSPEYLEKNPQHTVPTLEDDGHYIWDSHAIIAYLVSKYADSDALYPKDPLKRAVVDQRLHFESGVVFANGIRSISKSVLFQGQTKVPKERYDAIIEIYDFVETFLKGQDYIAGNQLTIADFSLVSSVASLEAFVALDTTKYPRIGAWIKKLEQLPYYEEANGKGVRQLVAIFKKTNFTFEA
The assay is described as follows: fluorogenic GSH conjugation assay with […],4-DNADCF. The assay is classed as biochemical.

T2 sequence (Q7JYX0 whole entry): as the sequence (Q7JYX0 whole entry D113A) above, with A113D counted along it

With `C[C@]12CC[C@@H]3c4ccc(O)cc4CC[C@H]3[C@@H]1CC[C@@H]2O` [17β-estradiol], the IC50 was above 25 µM on DmGSTE9; above 25 µM against AgNobo [2]; 2.07 µM against AgNobo [3]; above 25 µM against DmNobo [4]; 2.33 µM against DmNobo [5]; above 25 µM against DmGSTE6. At DmNobo [1], this molecule had a Kd of 0.48 ± 0.1 µM.

In general, IC50 refers to the point on the concentration scale where inhibition reaches its midpoint. In general, Kd refers to the equilibrium constant for the complex coming apart.
